Results published in patent US12721823B2, “Methods and compositions for treatment of low circulating testosterone conditions” (University of Florida Research Foundation, Inc., priority 2021, dated 2026).

Columns and labels:
Assay type in all cases: in vivo, rat
Sprague-Dawley rats [1] = assay: Acute serum corticosterone 1 h after last sevoflurane exposure (ELISA); conditions: sevoflurane 3 h on P56, P58, P60, 1 h after last exposure, vs control
Protocol: Male and female rats in Generation 1 (G1) underwent anesthesia on postnatal days 56, 58 and 60. During this period, rats were held in a temperature-controlled chamber (+37° C.) with a continuous supply of 30% oxygen in air (1.5 L/min) during anesthesia-6% sevoflurane for 3 min for anesthesia induction and 2.1% sevoflurane for 177 min for anesthesia maintenance (the Sevoflurane group). Gas monitoring was performed using a calibrated Datex side stream analyzer (Datex-Ohmeda, Helsinki, Finland), which samples from the animal chamber interior. Rats in the G1 control group (Control) were not subjected to anesthesia. A subset of the rats in the G1 Control and Sevoflurane groups was sacrificed 1 h after the last exposure to sevoflurane (or equivalent timepoint in the Control group) to collect blood and brain tissue samples. FIG. 1 provides a schematic of experimental design. The remaining Control and Sevoflurane G1 male and female rats were mated on P85 to produce offspring (generation 2, G2). […] Serum corticosterone was measured using commercial ELISA kits (Cayman Chemical Company, Ann Arbor, MI, USA) according to the manufacturer's instructions. […] (FIGS. 2C-2F) Representative confocal images and quantitative analysis of the KCC2 immunoreactivity in the paraventricular nucleus (PVN) of the hypothalamus of the control and sevoflurane-exposed male (FIGS. 2C, 2E) and female (FIGS. 2D, 2F) rats. […]

Sprague-Dawley rats [2] = assay: Elevated plus maze (EPM)
Source text: (§1) Sixty-four G1 rats (32 control and 32 sevoflurane exposed) and 122 G2 rats, which were not exposed to sevoflurane anesthesia and were subjected to animal facility rearing only, were studied. The G1 rats were sequentially evaluated in the EPM starting on ~P125, PPI of the acoustic startle response on ~P135 and MWM starting ~on P145 (FIG. 1). One half of these animals were sacrificed on ≥P160 to collect trunk blood, brain and testis and ovarian tissues for further analyses. The rest of these animals were physically restrained for 30 min on ≥P160 to measure corticosterone responses, followed by collection of tissue samples (as above) for further analyses. The G2 rats were evaluated in the EPM starting on P60 and PPI of startle on P70 (FIG. 1). One half of these animals were sacrificed on ≥P95 to collect trunk blood and brain tissue samples for further analyses, and the rest of these animals were tested for the corticosterone responses to physical restraint for 30 min on ≥P95 before collecting the trunk blood and brain tissue samples.
The EPM studies were performed using an EPM apparatus and BIO-EPM 3C video tracking software (EB Instruments, Pinellas Park, FL) during the light phase of the dark-light cycle as previously described by our laboratory.^5-7 If a fall occurred, the animal was removed from the study (one G1 male rat was removed from the study for this reason).

Sprague-Dawley rats [3] = assay: Morris water maze (MWM) test
Source text: as §1
The MWM tests were run using a MWM apparatus and data were analyzed using a computer-based video tracking system (Water 2020; HVS Image) as previously described. 5

Sprague-Dawley rats [4] = assay: Basal and stress-induced (restraint) serum corticosterone, HPA axis activity; conditions: for serum levels of corticosterone before and after physical restraint: all experimental groups
Source text: Sixty-four G1 rats (32 control and 32 sevoflurane exposed) and 122 G2 rats, which were not exposed to sevoflurane anesthesia and were subjected to animal facility rearing only, were studied. The G1 rats were sequentially evaluated in the EPM starting on ~[…], PPI of the acoustic startle response on ~[…] and MWM starting ~on […] (FIG. 1). One half of these animals were sacrificed on ≥[…] to collect trunk blood, brain and testis and ovarian tissues for further analyses. The rest of these animals were physically restrained for 30 min on ≥[…] to measure corticosterone responses, followed by collection of tissue samples (as above) for further analyses. The G2 rats were evaluated in the EPM starting on P60 and PPI of startle on P70 (FIG. 1). One half of these animals were sacrificed on ≥[…] to collect trunk blood and brain tissue samples for further analyses, and the rest of these animals were tested for the corticosterone responses to physical restraint for 30 min on ≥[…] before collecting the trunk blood and brain tissue samples. Blood samples (~300 μl) were collected using the “tail clip” method at rest and 10, 60, and 120 min after the restraint. Physical restraint was administered using rodent holders (Kent scientific Corporation, Torrington, CT). Serum corticosterone was measured using commercial ELISA kits (Cayman Chemical Company, Ann Arbor, MI, USA) according to the manufacturer's instructions.

[5] = G1 male rats, more than two months after exposure, vs control
[6] = G2 females, all groups of parental exposure
[7] = G2 male offspring of both exposed parents

- EPM parameters (time in open arms, number of crossings, distance traveled) (Sprague-Dawley rats [2]; G1 female rats, vs control): no significant between-subjects effect
- distance traveled, EPM (Sprague-Dawley rats [2]; [5]): did not differ
- number of crossings, EPM (Sprague-Dawley rats [2]; [5]): did not differ
- time spent in open arms, EPM (Sprague-Dawley rats [2]; [5]): spent less time in open arms
- distances traveled, EPM (Sprague-Dawley rats [2]; [6]): similar
- number of crossings, EPM (Sprague-Dawley rats [2]; [6]): similar
- time spent in open arms, EPM (Sprague-Dawley rats [2]; [6]): similar
- distance traveled, EPM (Sprague-Dawley rats [2]; [7]): shorter distances
- number of crossings, EPM (Sprague-Dawley rats [2]; [7]): fewer crossings
- time spent in open arms, EPM (Sprague-Dawley rats [2]; G2 male progeny of exposed fathers and exposed mothers, vs offspring of control parents): spent less time in open arms
- time spent in open arms, EPM (Sprague-Dawley rats [2]; G2 male progeny of sevoflurane exposed fathers and unexposed mothers, vs offspring of control parents): spent less time in open arms
- time spent in open arms, EPM (Sprague-Dawley rats [2]; G2 male progeny of unexposed fathers and exposed mothers, vs offspring of control parents): spent less time in open arms
- MWM tests (Sprague-Dawley rats [3]; G1 female rats): no significant group effects
- MWM escape latencies (Sprague-Dawley rats [3]; G1 male rats, 5-day training period): no significant between-subjects effect
- crossings over the escape platform location, MWM (Sprague-Dawley rats [3]; G1 male rats, probe test): fewer crossings
- time in the target quadrant of the MWM (Sprague-Dawley rats [3]; G1 male rats, probe test): significantly less time
Structure (SMILES): FCOC(C(F)(F)F)C(F)(F)F [sevoflurane, 1,1,1,3,3,3-hexafluoro-2-(fluoromethoxy)propane]
- serum levels of corticosterone (Sprague-Dawley rats [1]; G1 female rats): significantly increased
- serum levels of corticosterone (Sprague-Dawley rats [1]; G1 male rats): significantly increased
- serum corticosterone levels (Sprague-Dawley rats [4]; G1 female rats, before and after restraint, vs control): no difference
- serum corticosterone (Sprague-Dawley rats [4]; G1 male rats, 10 min after restraint, vs control): higher levels
- total corticosterone responses (AUCg) (Sprague-Dawley rats [4]; G1 male rats, 30 min restraint on ≥P160, vs control): significantly higher
- serum corticosterone (Sprague-Dawley rats [4]; G1 male rats, 60 min after restraint, vs control): higher levels
- serum corticosterone (Sprague-Dawley rats [4]; G1 male rats, 120 min post restraint, vs control): not different
- serum corticosterone (Sprague-Dawley rats [4]; G1 male rats, before the restraint, vs control): not different
- serum levels of corticosterone before and after physical restraint (Sprague-Dawley rats [4]; G2 female rats): no differences
- serum levels of corticosterone before and after physical restraint (Sprague-Dawley rats [4]; G2 male rats): no differences
